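Growth conditions: 96-well plates. Treatment: test compound, 48 hours, 5 concentrations. Analysis: linear interpolation between bracketing concentrations; unreached endpoints set to highest concentration. TGI: concentration producing complete growth inhibition.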 Where a SMILES comes first, the peptide text is derived from it.
Key:
Test in all cases: NCI tumour cell line growth inhibition, 48 h
ACHN renal = tested on: ACHN renal
COLO 205 colon = tested on: COLO 205 colon
DU-145 prostate = tested on: DU-145 prostate
HCC-2998 colon = tested on: HCC-2998 colon
HT29 colon = tested on: HT29 colon
IGROV1 ovarian = tested on: IGROV1 ovarian
NCI-H460 lung = tested on: NCI-H460 lung
SF-295 CNS = tested on: SF-295 CNS
SNB-19 CNS = tested on: SNB-19 CNS
SW-620 colon = tested on: SW-620 colon
T-47D breast = tested on: T-47D breast
U251 CNS = tested on: U251 CNS
UACC-257 melanoma = tested on: UACC-257 melanoma
UO-31 renal = tested on: UO-31 renal
HOP-92 NSCLC = tested on: HOP-92 NSCLC

| SMILES | TGI (ACHN renal) | TGI (COLO 205 colon) | TGI (DU-145 prostate) | TGI (HCC-2998 colon) | TGI (HT29 colon) | TGI (IGROV1 ovarian) | TGI (NCI-H460 lung) | TGI (SF-295 CNS) | TGI (SNB-19 CNS) | TGI (SW-620 colon) | TGI (T-47D breast) | TGI (U251 CNS) | TGI (UACC-257 melanoma) | TGI (UO-31 renal) | TGI (HOP-92 NSCLC) |
| --- | --- | --- | --- | --- | --- | --- | --- | --- | --- | --- | --- | --- | --- | --- | --- |
| O=C(O)c1ccc(NNc2cc(=O)[nH]c(=O)[nH]2)cc1 | > 100 µM | > 100 µM | > 100 µM | > 100 µM | > 100 µM | > 100 µM | > 100 µM | > 100 µM | > 100 µM | > 100 µM | > 100 µM | > 100 µM | > 100 µM | > 100 µM | – |
| COc1ccc2c(c1C)C(=O)C(O)(CC=C(C)C)O2 (stereo unspecified) | > 100 µM | > 100 µM | > 100 µM | > 100 µM | > 100 µM | > 100 µM | > 100 µM | > 100 µM | > 100 µM | > 100 µM | > 100 µM | > 100 µM | > 100 µM | > 100 µM | – |
| N#Cc1c(-c2ccccc2)[nH]c2ccccc2c1=O | > 100 µM | > 100 µM | > 100 µM | – | > 100 µM | > 100 µM | > 100 µM | 66.7 µM | 74.9 µM | > 100 µM | – | – | > 100 µM | – | > 100 µM |
| CC12CCC(C(=O)OC1=O)C2(C)C (stereo unspecified) | > 100 µM | > 100 µM | > 100 µM | > 100 µM | > 100 µM | > 100 µM | > 100 µM | > 100 µM | > 100 µM | > 100 µM | > 100 µM | > 100 µM | > 100 µM | > 100 µM | – |
| CC1=C(Br)C(Br)=C(C)S1=O | 90.9 µM | 5.82 µM | – | 34.9 µM | 45.4 µM | > 100 µM | 34.7 µM | 49.6 µM | 63.7 µM | > 100 µM | > 100 µM | 26 µM | 32.1 µM | 39.3 µM | > 100 µM |
| CC1(C)c2ccccc2C(=O)C12CCC(=O)CC2 | > 100 µM | > 100 µM | > 100 µM | > 100 µM | > 100 µM | > 100 µM | > 100 µM | > 100 µM | > 100 µM | > 100 µM | > 100 µM | > 100 µM | > 100 µM | > 100 µM | – |
| Cc1cc(C)cc(C(=N)c2ccccc2Cc2cccc3ccccc23)c1 | 31.2 µM | 52.3 µM | 29.7 µM | – | 24.5 µM | 34.9 µM | 29.5 µM | 25.5 µM | 43 µM | 31.8 µM | 46.3 µM | > 100 µM | 64.1 µM | > 100 µM | 29 µM |
| CNC(=S)N/N=C(C)\C(=N/NC(=S)NC)c1ccccc1 | > 100 µM | > 100 µM | > 100 µM | > 100 µM | – | > 100 µM | > 100 µM | > 100 µM | > 100 µM | – | – | – | > 100 µM | > 100 µM | – |
| COC(CN(C(=O)c1ccccc1)C1CCC2(SCCS2)c2[nH]c3ccccc3c21)OC (stereo unspecified) | > 100 µM | 59.3 µM | > 100 µM | > 100 µM | > 100 µM | > 100 µM | > 100 µM | 13.9 µM | > 100 µM | > 100 µM | – | > 100 µM | 33.5 µM | > 100 µM | > 100 µM |
| CCC(C)C(NC(=O)C(CCCCN)NC(=O)C(NC(=O)C(CCC(N)=O)NC(=O)C(N)CCCNC(=N)N)C(C)CC)C(=O)NC(Cc1c[nH]c2ccccc12)C(=O)NC(Cc1ccccc1)C(=O)NC(CCC(N)=O)C(=O)NC(CC(N)=O)C(=O)NC(CCCNC(=N)N)C(=O)NC(CCCNC(=N)N)C(=O)NC(CCSC)C(=O)NC(CCCCN)C(=O)NC(Cc1c[nH]c2ccccc12)C(=O)NC(CCCCN)C(=O)NC(CCCCN)C(=O)N1CCCC1C(=O)NC(C)C(=O)NC(CCCCN)C(=O)NC(CCCNC(=N)N)C(=O)NC(CCCCN)C(=O)NC(CC(C)C)C(=O)NC(Cc1ccccc1)C(=O)NCC(=O)O (stereo unspecified) (H-RQIKIWFQNRRMKWKKPAKRKLFG-OH; configuration not given here) | > 25 µM | > 25 µM | > 25 µM | > 25 µM | > 25 µM | > 25 µM | > 25 µM | > 25 µM | > 25 µM | > 25 µM | – | > 25 µM | > 25 µM | > 25 µM | > 25 µM |
| CCCCCC(C[N+]1(C)CCOCC1)C(=O)/C=C/c1ccccc1 (stereo unspecified) | 60.8 µM | 35.9 µM | – | 33.7 µM | 10.3 µM | 40.1 µM | > 61.5 µM | 21.6 µM | 24.5 µM | 7.51 µM | – | 21.2 µM | 27.6 µM | 29.7 µM | 35.3 µM |
| COc1ccc2c(c1)CC[C@@H]1[C@@H]2CC[C@]2(C)C(=O)/C(=C/c3ccc(OC)c(OC)c3)C[C@@H]12 | > 100 µM | – | > 100 µM | > 100 µM | – | – | > 100 µM | > 100 µM | > 100 µM | > 100 µM | – | > 100 µM | – | > 100 µM | > 100 µM |
| CC1=C(C(N)=O)C(c2ccncc2)C(C#N)=C2SCC(=O)N12 (stereo unspecified) | > 100 µM | > 100 µM | > 100 µM | – | > 100 µM | > 100 µM | > 100 µM | > 100 µM | > 100 µM | > 100 µM | > 100 µM | > 100 µM | > 100 µM | > 100 µM | > 100 µM |
| C/C(=C1/CCCC2(N=NCC2c2ccccc2)C1=O)c1ccccc1 (stereo unspecified) | > 100 µM | 31.1 µM | – | > 100 µM | 56.7 µM | > 100 µM | > 100 µM | > 100 µM | > 100 µM | > 100 µM | – | 72 µM | 52.7 µM | > 100 µM | > 100 µM |
| O=C1/C(=C\c2ccc([N+](=O)[O-])o2)SC2N=C(COc3ccc(Cl)cc3)NN12 (stereo unspecified) | 3.67 µM | 13.3 µM | 27.3 µM | – | 44.4 µM | 9.82 µM | 39.5 µM | 34.1 µM | 31.1 µM | 9.92 µM | 7.54 µM | 34.7 µM | 16.9 µM | 23 µM | 4.49 µM |
| Cc1cccc2c1[C@]13OC(C)[C@]4(C)CC5OC(=O)[C@@]1(C)[C@@H]5[C@]34C(=O)O2 (stereo partly specified) | > 100 µM | > 100 µM | > 100 µM | > 100 µM | > 100 µM | > 100 µM | > 100 µM | > 100 µM | > 100 µM | > 100 µM | > 100 µM | > 100 µM | > 100 µM | > 100 µM | – |

— PubChem BioAssay (NCI)
